Results as given in US9708305B2, “Substituted 1,2,3,4-tetrahydroisoquinoline derivatives for the treatment of hormone-dependent diseases” (UNIVERSITÉ LAVAL, priority 2013, dated 2017).
Each block holds one compound with its values, some of them ahead of it.

How the values were obtained:
MCF-7 (ER+) cells = assay: Proliferative (estrogenic) activity on MCF-7 (ER+) cells; assay type: cell-based; conditions: 7 days; for proliferation of MCF-7 (ER+) cells: 1 μM, control 100%
Procedure: The next step was to determine the presence or absence of estrogenic activity. To do so, cell proliferative assays were carried out on MCF-7 cells. […] Phenols of the corresponding sulfamate library 3-EO and 4-EO are referred to as library 3′-EO and library 4′-EO, respectively.
This cell assay was carried out according to a procedure previously described to determine the estrogenic activity of enzyme inhibitors on the growth of estrogen-sensitive MCF-7 cells.^77 All chemicals tested were first dissolved in DMSO and subsequent dilutions were done in the proper cell culture media. The final concentration of DMSO in the culture medium was 0.1% or less. 3-(4,5-dimethylthiazol-2-yl)-5-(3-carboxymethoxyphenyl)-2-(4-sulfophenyl)-2-H-tetrazolium (MTS) was used as an indirect colorimetric measurement of cell proliferation according to the manufacturer's instructions (Promega, Madison, Wis.). At the end of the treatments, 20 μL of MTS solution was added to each well (100 μL) and the MCF-7 cells were incubated 4 h at 37° C. The absorbance at 490 nm was then measured with a Thermo max microplate reader (Molecular Devices, Sunnyvale, Calif.). The control (culture media+DMSO) is set to 100% of cell proliferation.

[1] = test system: alkaline phosphatase activity in Saos-2 cells; assay: Alkaline phosphatase assay (Saos-2 cells), phenol library; assay type: cell-based; conditions: 1 nM; control (no treatment) fixed at 100%
Procedure: We also investigated the effect of selected phenol derivatives on alkaline phosphatase activity in Saos-2 cells (FIG. 13B).
Saos-2 cells were used similarly as reported in the cell proliferation assay. The cells were seeded at a density of 2 000 cells/well and treated for 3 days with each compound to be tested. The alkaline phosphatase (ALP) activity was measured using the Sensolyte® pNPP Alkaline Phosphatase Assay Kit *Colorimetric* (AnaSpec, Freemont, Calif.) following the manufacturer's protocol. Briefly, after three days of treatment, the cells were washed twice with washing buffer (provided with the kit) and lysed with 0.2% Triton X-100. The cell lysates were centrifuged and the supernatants were used to determine ALP activity. The supernatants were deposed in a 96-well plate and incubated for 30 minutes with a p-nitrophenyl phosphate solution (provided with the kit). The absorbance at 405 nm was measured with a Thermo max microplate reader (Molecular Devices, Sunnyvale, Calif.). The control (culture media+DMSO) is set to 100% of alkaline phosphatase activity.

[2] = test system: osteoblast-like Saos-2 cells; assay: Saos-2 cell proliferation, MTS; assay type: cell-based; conditions: for Saos-2 cell proliferation, dose response: 1 nM to 1 μM; for Saos-2 cell proliferation, dose response / Saos-2 cell proliferation: 7 days; for Bone cells Saos-2 (ER+) SERM effect Proliferative activity (%): in percentage of control (100%; 0.1 nM of estradiol); for Saos-2 cell proliferation: control 100%
Text: First, we wanted to evaluate their effect on cell proliferation. […] This is outlined in FIG. 8A. […] One of the main roles of osteoblasts in bone tissue is to construct a calcified extracellular matrix.^15 As such, bone formation is not principally due to osteoblasts proliferation but rather osteoblasts maturation into mature osteocytes. […] This is outlined in FIG. 8B.
(§1) CellTitter 96® Aqueous One Solution Cell Proliferation Assay was used as an indirect colorimetric measurement of cell proliferation according to the manufacturer's instructions. Briefly, after the treatments, 20 μL of MTS solution was added to each well (100 μL) of the plates and incubated at 37° C. for 2 h (Saos-2) or 4 h (T-47D). The absorbance at 490 nm was then measured with a Thermo max microplate reader (Molecular Devices, Sunnyvale, Calif.). The control (culture media+DMSO) is set to 100% of cell proliferation.
Saos-2 cells were suspended in phenol-red free McCoy's 5A medium supplemented with 10% charcoal-stripped FBS, penicillin (100 IU/mL) and streptomycin (100 μg/mL). The cells were seeded in 96-well plates at a density of 3 000 cells/well and allowed to attach. After 24 h, the inhibitors and the reference compounds diluted in fresh culture media were added to the wells and replaced every 2 days for 7 days of treatment.

[3] = test system: alkaline phosphatase (ALP) activity in Saos-2 cells; assay: Alkaline phosphatase (ALP) activity in Saos-2 cells; assay type: cell-based
Procedure: ALP is an enzyme that releases inorganic phosphate from different intracellular substrates such as pyrophosphate and pyridoxal 5′-phosphate.^63 The inorganic phosphate is used in the formation of hydroxyapatite crystals which are then inserted in the extracellular protein scaffold to form the solid part of bone tissue.
Saos-2 cells were treated similarly as reported in the cell proliferation assay. The cells were seeded at a density of 2 000 cells/well and were treated with the inhibitors and the reference compounds for 3 days. The alkaline phosphatase (ALP) activity was measured using Sensolyte® pNPP Alkaline Phosphatase Assay Kit *Colorimetric* (AnaSpec, Fremont, Calif.) following the manufacturer's protocol. Briefly, after the 3 days of treatment, the cells were washed twice with washing buffer (provided with the kit) and lysed with 0.2% Triton X-100. The cell lysates were centrifuged and the supernatants were used to determine the ALP activity. The supernatants were deposed in a 96-well plate and incubated 30 min with a p-nitrophenyl phosphate solution (provided with the kit). The absorbance at 405 nm was measured with a Thermo max microplate reader (Molecular Devices, Sunnyvale, Calif.). The control (culture media+DMSO) is set to 100% of alkaline phosphatase activity.

steroid sulfatase (STS) = target: T1, steroid sulfatase (STS) (Homo sapiens, UniProt P08842); assay: Steroid sulfatase (STS) inhibition, [3H]-E1S to [3H]-E1, homogenate of transfected HEK-293 cells; assay type: biochemical; conditions: for IC50: transformation of E1S into E1 in homogenate of HEK-293 cells transfected with STS, read-out: Steroid Sulfatase Inhibition IC50
T1 construct: expressed in transfected cells; host or cells: HEK-293 cells stably transfected with STS (G418 selection), obtained from Dr. Van Luu-The; used as freeze-thaw homogenate
T1 sequence (P08842 22-583): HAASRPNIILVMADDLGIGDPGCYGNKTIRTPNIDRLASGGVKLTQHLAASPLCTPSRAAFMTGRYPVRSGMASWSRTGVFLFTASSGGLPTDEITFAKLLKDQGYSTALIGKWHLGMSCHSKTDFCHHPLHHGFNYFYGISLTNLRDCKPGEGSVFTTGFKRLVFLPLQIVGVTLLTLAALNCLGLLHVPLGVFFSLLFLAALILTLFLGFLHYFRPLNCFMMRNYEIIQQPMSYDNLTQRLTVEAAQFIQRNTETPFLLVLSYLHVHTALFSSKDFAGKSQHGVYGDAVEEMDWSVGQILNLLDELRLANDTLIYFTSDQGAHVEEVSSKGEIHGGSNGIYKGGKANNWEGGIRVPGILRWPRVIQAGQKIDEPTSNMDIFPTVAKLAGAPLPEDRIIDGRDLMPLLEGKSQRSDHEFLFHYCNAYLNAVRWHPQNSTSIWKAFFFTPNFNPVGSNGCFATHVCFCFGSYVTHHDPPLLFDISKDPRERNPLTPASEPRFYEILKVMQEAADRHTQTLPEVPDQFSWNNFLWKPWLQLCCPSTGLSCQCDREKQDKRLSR
Procedure: To test STS inhibition, we used homogenated HEK-293 cells overexpressing STS and evaluated the capacity of our compounds to inhibit the conversion of [^3H]-E1S into [^3H]-E1. […] This is outlined in FIG. 5.
An enzymatic assay previously described was used for the inhibition of the transformation of estrone sulfate (E1S) to estrone (E1) by STS.^72 Briefly, the transfected HEK-293 cells were homogenized by repeated (5 times) cycles of freezing (−80° C.) and thawing on ice (4° C.). The homogenates were then incubated for 2 h at 37° C. (shaking water bath) with or without inhibitors (0.01 μM-1 μM) in presence of [^3H]-E1S (9 nM), adjusted to 1 μM with E1S, in a Tris-acetate buffer (pH 7.4) containing 5 mM EDTA and 10% glycerol. After the incubation, 1 mL of xylene was added to each tube and the solutions were then centrifuged at 3000 rpm for 20 min to separate the organic ([^3H]-E1) and aqueous ([^3H]-E1S) phases. Once 500 μL of each phase was added to 10 mL of Biodegradable Counting Scintillant, the radioactivity of samples was recorded using a Wallac 1411 Liquid Scintillation Counter. The percentage of inhibition was determined by comparison with the control (buffer+homogenate+[^3H]-E1S) which was set to 0% of inhibition. IC50 value was obtained using GraphPad Prism 5 (GraphPad Software, La Jolla, Calif.).

T-47D cells [4] = assay: T-47D cell proliferation in presence of E2 (antiestrogenicity); assay type: cell-based; conditions: for inhibition at 1 µM: Homo sapiens, T47D, read-out: Breast cancer cells T-47D (ER+) Antagonist activity (%)
Procedure: as §1
(§2) The cells were plated in 96-well plates at a density of 3 000 cells/well and allowed to attach for 48 h. After this pre-incubation, the inhibitors and the reference compounds diluted in fresh culture media were added to the wells and replaced every 2 days for 7 days of treatment.

T-47D cells [5] = assay: T-47D cell proliferation (estrogenicity / cytotoxicity), MTS; assay type: cell-based; conditions: for Breast cancer cells T-47D (ER+) Agonist activity (%): in % of control (100%; 0.1 nM of estradiol)
Procedure: The library of phenolic compounds described above was tested on estrogen-sensitive breast cancer T-47D cells.
In Table 1, cell proliferation of control cells is set to 100%. Results are expressed as mean±SD of one experiment in triplicate.
as §1, §2

Compound: O=C(c1ccc(CN(CCO)Cc2ccccc2)cc1)N1CCc2ccc(O)cc2C1 [3′-EO-02]
proliferation of MCF-7 (ER+) cells (MCF-7 (ER+) cells): 135%

Compound: CN(C)CCCN(Cc1ccccc1)Cc1ccc(C(=O)N2CCc3ccc(O)cc3C2)cc1 [3′-EO-05]
proliferation of MCF-7 (ER+) cells (MCF-7 (ER+) cells): 126%

Compound: O=C(c1ccc(CN(Cc2ccccc2)Cc2ccco2)cc1)N1CCc2ccc(O)cc2C1 [3′-EO-11]
stimulation of MCF-7 cell growth (MCF-7 (ER+) cells; 0.01 μM, 0.1 μM and 1 μM): did not stimulate

Compound: CCN(Cc1ccc(C(=O)N2CCc3ccc(O)cc3C2)cc1)Cc1cccc(Br)c1 [3′-EO-12]
proliferation of MCF-7 (ER+) cells (MCF-7 (ER+) cells): 118%

Compound: CCN(Cc1ccc(Br)cc1)Cc1ccc(C(=O)N2CCc3ccc(O)cc3C2)cc1 [3′-EO-13]
proliferation of MCF-7 (ER+) cells (MCF-7 (ER+) cells): 177%

Compound: CCN(Cc1ccc(F)cc1)Cc1ccc(C(=O)N2CCc3ccc(O)cc3C2)cc1 [3′-EO-17]
ALP activity in Saos-2 cells [1]: 152%

inhibition of STS (steroid sulfatase (STS); homogenates of transfected HEK-293 cells): no significant inhibition | IC50 (steroid sulfatase (STS)): > 1000 nM
Compound: Cc1ccc(CN(Cc2ccc(C(=O)N3CCc4ccc(O)cc4C3)cc2)Cc2ccco2)s1 [Compound 29, [4-({(furan-2-ylmethyl)[(5-methylthiophen-2-yl)methyl]amino}methyl)phenyl](7-hydroxy-3,4-dihydroisoquinolin-2(1H)-yl)methanone]
Saos-2 cell proliferation, dose response [2]: apparent dose-dependent response | Bone cells Saos-2 (ER+) SERM effect Proliferative activity (%) ([2]; 0.1 μM): 175% | Saos-2 cell proliferation ([2]; 1 μM): ~150% | Bone cells Saos-2 (ER+) SERM effect Proliferative activity (%) ([2]; 1 μM): 250% | Bone cells Saos-2 (ER+) SERM effect Alkaline phosphatase activity (%) ([3]; 0.1 nM): 114% | stimulation of ALP activity in presence of ICI-164,384 or MPP + PHTPP ([3]; 0.1 nM compound, antagonists 1 μM, 3 days): completely blocked the stimulation | ALP activity in Saos-2 cells ([3]; 0.1 nM, 3 days, control 100%): 138% | blockade of the stimulation induced by E2 in T-47D cells (T-47D cells [4]; 5 μM, E2 0.1 nM): approximately 84% | inhibition at 1 µM (T-47D cells [4]): 46% | estrogenicity / cytotoxicity on T-47D cells (T-47D cells [5]; 0.01 μM, 0.1 μM and 1 μM): neither estrogenicity nor cytotoxicity | Breast cancer cells T-47D (ER+) Agonist activity (%) (T-47D cells [5]; 1 μM): 0% | activity at 0.01 µM (T-47D cells [5]; Homo sapiens, T47D, 0.01 μM, control cells set to 100%, mean±SD): 97.1 ± 2.6% | activity at 0.1 µM (T-47D cells [5]; Homo sapiens, T47D, 0.1 μM, control cells set to 100%, mean±SD): 103 ± 1.8% | activity at 1 µM (T-47D cells [5]; Homo sapiens, T47D, 1 μM, control cells set to 100%, mean±SD): 96.8 ± 2.2%

IC50 (steroid sulfatase (STS)): 3.9 nM
Compound: Cc1ccc(CN(Cc2ccc(C(=O)N3CCc4ccc(OS(N)(=O)=O)cc4C3)cc2)Cc2ccco2)s1 [Compound 33, 2-{[4-({(furan-2-ylmethyl)[(5-methylthiophen-2-yl)methyl]amino}methyl)phenyl]carbonyl}-1,2,3,4-tetrahydroisoquinolin-7-yl sulfamate]
Saos-2 cell proliferation, dose response [2]: apparent dose-dependent response | Bone cells Saos-2 (ER+) SERM effect Proliferative activity (%) ([2]; 0.1 μM): 33% | Saos-2 cell proliferation ([2]; 1 μM): ~150% | Bone cells Saos-2 (ER+) SERM effect Proliferative activity (%) ([2]; 1 μM): 211% | Bone cells Saos-2 (ER+) SERM effect Alkaline phosphatase activity (%) ([3]; 0.1 nM): 48% | inhibition at 1 µM (T-47D cells [4]): 25% | Breast cancer cells T-47D (ER+) Agonist activity (%) (T-47D cells [5]; 1 μM): 0%

Compound: CC/C(=C(\c1ccccc1)c1ccc(OCCN(C)C)cc1)c1ccccc1 [tamoxifen, reference compound]
ALP activity in Saos-2 cells [1]: 143%
